Results taken from patent US20250034098A1, “CRYSTALLINE SUBSTITUTED PYRAZINES AS PGI2 RECEPTOR AGONISTS” (NIPPON SHINYAKU CO., LTD., priority 2017, published 2025).

How the values were obtained:
PGI2 receptor = PGI2 receptor (Homo sapiens, UniProt P43119); details: cited from earlier work
[1] = Stability test of crystal forms of Compound B (Test Example 1); type: physicochemical; details: for thermodynamic stability of the crystal form: Test Example 1, storage at 90° C.; for crystal form transformation on storage: storage at 90° C.; for Crystal form after 14 days: stored at 90° C.
Procedure: Different crystal forms of Compound B were placed in glass bottles, respectively, and the glass bottles were hermetically sealed and stored at 90° C. Samples were taken out after 1 day, 5 days, and 14 days, and dissolved in methanol at a concentration of 1 mg/mL to determine related substances by HPLC. With respect to the crystals after 14 days, the crystal form was checked.

[2] = Solvent suspending test of form-I crystal in different solvents (Test Example 2); type: physicochemical; details: for Crystal form after 30 minutes at room temperature: stirring
Procedure: The form-I crystal of the present invention was mixed with different solvents, and stirring was performed at room temperature for 30 minutes. The formed crystals were obtained by filtration, and the crystal forms were determined.

[3] = 90° C., after 1 day, hermetically sealed glass bottle
[4] = 90° C., after 5 days, hermetically sealed glass bottle
[5] = 90° C., after 14 days, hermetically sealed glass bottle
[6] = hermetically sealed glass bottle

Chain of PGI2 receptor (P43119 whole entry, species assumed): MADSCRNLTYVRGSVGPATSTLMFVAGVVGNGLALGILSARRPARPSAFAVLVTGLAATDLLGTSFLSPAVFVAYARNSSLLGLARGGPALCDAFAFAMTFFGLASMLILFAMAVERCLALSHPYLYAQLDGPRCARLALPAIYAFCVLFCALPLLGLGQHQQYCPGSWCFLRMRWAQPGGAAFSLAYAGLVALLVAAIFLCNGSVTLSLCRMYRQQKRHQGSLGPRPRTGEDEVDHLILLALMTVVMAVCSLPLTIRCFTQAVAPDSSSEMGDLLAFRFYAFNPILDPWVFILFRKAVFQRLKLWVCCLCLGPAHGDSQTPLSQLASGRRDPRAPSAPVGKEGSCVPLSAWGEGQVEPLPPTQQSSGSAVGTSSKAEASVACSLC

Row | Structure (SMILES) | Appearance [1, 3] | HPLC area (%) [1, 3] [%] | Appearance [1, 4] | HPLC area (%) [1, 4] [%] | Appearance [1, 5] | HPLC area (%) [1, 5] [%] | Appearance ([1]; Before storage) | HPLC area (%) ([1]; Before storage) | crystal form transformation on storage [1] | Crystal form after 14 days [1, 6] | other results
1 | CC(C)N(CCCCOCC(=O)O)c1cnc(-c2ccccc2)c(-c2ccccc2)n1 [Compound B, 2-{4-[N-(5,6-diphenylpyrazin-2-yl)-N-isopropylamino]butyloxy}acetic acid] | – | – | – | – | – | – | – | – | – | – | PGI2 receptor agonistic effect (PGI2 receptor): excellent
2 | CC(C)N(CCCCOCC(=O)O)c1cnc(-c2ccccc2)c(-c2ccccc2)n1 [Form-I, 2-{4-[N-(5,6-diphenylpyrazin-2-yl)-N-isopropylamino]butyloxy}acetic acid] | No change | 99.8 | No change | 99.8 | No change | 99.6 | White crystal | 99.8 | gradually transformed into the form-II | Form-I + Form-II | thermodynamic stability of the crystal form ([1]; listed as form-I crystal): thermodynamically more stable; crystal form transformation when suspended ([2]; all the solvents, room temperature): partially transformed into the form-II crystal of the present invention; Crystal form after 30 minutes at room temperature ([2]; solvent 2-propanol): Form-I + Form-II (1:10); Crystal form after 30 minutes at room temperature ([2]; solvent cyclohexane): Form-I + Form-II (1:1); Crystal form after 30 minutes at room temperature ([2]; solvent toluene): Form-I + Form-II (10:1); Crystal form after 30 minutes at room temperature ([2]; solvent water): Form-I + Form-II (10:1)
3 | CC(C)N(CCCCOCC(=O)O)c1cnc(-c2ccccc2)c(-c2ccccc2)n1 [Form-II, 2-{4-[N-(5,6-diphenylpyrazin-2-yl)-N-isopropylamino]butyloxy}acetic acid] | No change | 100 | No change | 100 | No change | 99.9 | Yellow crystal | 100 | – | Form-II | thermodynamic stability of the crystal form [1]: thermodynamically stable; thermodynamic stability of the crystal form ([1]; listed as form-II crystal): thermodynamically more stable; thermodynamic stability of the crystal form when suspended ([2]; various solvents at room temperature): thermodynamically stable
4 | CC(C)N(CCCCOCC(=O)O)c1cnc(-c2ccccc2)c(-c2ccccc2)n1 [Form-III, 2-{4-[N-(5,6-diphenylpyrazin-2-yl)-N-isopropylamino]butyloxy}acetic acid] | No change | 99.9 | No change | 99.9 | No change | 99.7 | Yellow crystal | 99.9 | gradually transformed into the form-II | Form-II | thermodynamic stability of the crystal form ([1]; listed as form-III crystal): thermodynamically unstable
